Data taken from patent US20230201217A1 (priority 2019, published 2023).
pIC50: −log10 of the molar value. “And” between values parts separate entries of the source, which are not always exact repeats. Equal values may be shown once. Read-outs that look alike come from different tables or passages of the source.

Columns and labels:
[1] = test system: isolated rabbit Purkinje fibers; experiment: Action potential duration in rabbit cardiac Purkinje fibers; details: 50 μM, positive control
Description: The in vitro effect of 18-MC on the cardiac action potential was evaluated in isolated rabbit Purkinje fibers (FIG. 13). […] Fibers with resting potentials more negative than −80 mV and normal action potential morphology (APD90≥150 ms) were used in the study. Fibers were stimulated continuously at BCL of 1 second for at least 5 minutes. At the end of this period, baseline control APD rate dependence was measured using stimulus pulse trains consisting of approximately 50 pulses at BCL of 1 and 0.5 seconds. After returning to BCL of 1 second, 18-MC (or dl-sotalol) at the lowest concentration was applied for at least 20 minutes to allow equilibration, and the stimulus trains repeated. […] The average responses from the last five recorded action potentials from each stimulus train were analyzed for each test condition.
Electrophysiological recordings were performed with four nominal concentrations of 18-MC (0.3, 1, 3, and 10 μM) added sequentially to four preparations at two stimulus intervals (basic cycle lengths of 1 s and 0.5 s). The effects of 18-MC on action potential parameters were compared to time-matched vehicle control sequences.

[2] = Phase 1 first-in-human study, pharmacokinetics in plasma; details: for Cmax: Average; for percentage of the total drug related material: 4 mg twice at 0 and +10 hours
Description: Fourteen normal, healthy volunteers were enrolled in the study. Seven volunteers were treated in the first cohort (3 placebo, 4 received a single dose of 20 mg of 18-MC) and seven in the second cohort (2 placebo, 5 received 8 mg as 4 mg doses of 18-MC administered at 0 and plus 10 hours). For Cohort A, volunteers were monitored in a hospital unit for 2 days (36 hours) days, and were followed up for safety at Days 3, 7 and 30. For Cohort B, volunteers were monitored in a hospital unit for 2 days (36 hours), and were followed up for safety at Days 3, 4, 7 and 30.
This study was designed as a randomized, double-blind, placebo-controlled, single-center Phase 1 first-in-human clinical trial. After screening, volunteers were admitted to the hospital for 36 hours. […] Study article was initiated on Day 1 and volunteers were discharged on Day 2. Cohort A were seen as outpatients on Days 3, 7 and 30. Cohort B were seen as outpatients on Days 3, 4, 7 and 30. 14 subjects were in the study, 5 male and 9 female.
For Cohort A, pharmacokinetic samples were obtained at baseline and at 0.5, 1.0, 2.0, 6.0, 12.0, 24, 36 hours, and 7 days post dose.
Samples underwent two analyses: A research assay (LG/MS/TOF) developed by MicroConstants, Inc., was used to collect the raw data. The first analysis was to quantitate 18-MG and the known metabolites M2, M4 and M5 (using standard curves included in the run). The second analysis compared the peak heights of 18-MG and all the metabolites that could be identified in terms of relative peak height (M1 through M10, and P1-P3).

[3] = biological target: T1, rat α3β4 nicotinic acetylcholine receptor (nAChR) (Rattus norvegicus, UniProt P04757+P12392); experiment: cell-based; details: for Persistent Inhibition at 1 sec: 1 second after removal of drug; for koff: HEK293
T1 construct: expressed in transfected cells; host or cells: HEK 293 (ATCC CRL1573), transient, Lipofectamine 2000
T1 sequence (P04757 26-499): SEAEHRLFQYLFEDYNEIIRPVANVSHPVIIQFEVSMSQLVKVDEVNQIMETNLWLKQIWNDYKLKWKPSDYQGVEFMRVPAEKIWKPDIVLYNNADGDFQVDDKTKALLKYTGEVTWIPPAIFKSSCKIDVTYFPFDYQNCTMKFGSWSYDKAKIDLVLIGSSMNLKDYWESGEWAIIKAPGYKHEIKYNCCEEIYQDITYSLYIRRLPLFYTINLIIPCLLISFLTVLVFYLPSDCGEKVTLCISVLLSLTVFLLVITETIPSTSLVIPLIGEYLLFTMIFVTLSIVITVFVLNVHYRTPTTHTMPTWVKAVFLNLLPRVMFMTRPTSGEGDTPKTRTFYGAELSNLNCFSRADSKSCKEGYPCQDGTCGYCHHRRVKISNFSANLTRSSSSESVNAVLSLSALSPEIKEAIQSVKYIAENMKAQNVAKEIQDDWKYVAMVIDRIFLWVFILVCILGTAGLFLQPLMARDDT
T1 sequence (P12392 21-495): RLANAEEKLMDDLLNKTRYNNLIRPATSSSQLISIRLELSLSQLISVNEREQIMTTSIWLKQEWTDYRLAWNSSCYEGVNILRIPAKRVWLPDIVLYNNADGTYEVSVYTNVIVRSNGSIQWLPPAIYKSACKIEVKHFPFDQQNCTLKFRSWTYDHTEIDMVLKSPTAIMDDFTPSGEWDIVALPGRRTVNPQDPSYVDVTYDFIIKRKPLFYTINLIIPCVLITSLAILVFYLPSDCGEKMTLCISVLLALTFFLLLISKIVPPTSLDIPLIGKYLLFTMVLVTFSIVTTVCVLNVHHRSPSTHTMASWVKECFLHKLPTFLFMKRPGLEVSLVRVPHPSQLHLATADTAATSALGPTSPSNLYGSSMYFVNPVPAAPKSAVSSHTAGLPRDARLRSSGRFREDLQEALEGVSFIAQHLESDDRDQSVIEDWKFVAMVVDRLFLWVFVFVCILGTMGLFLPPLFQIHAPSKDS

mouse liver = experiment: In vivo comet assay; details: positive control
Description: The comet assay (alkaline single cell gel electrophoresis) is a microgel electrophoretic technique that detects DNA damage in individual cells. DNA damage can be expressed as DNA single strand breaks, double strand breaks, and strand breaks induced by alkali labile sites. […] For this study, the liver was selected as the tissue for evaluation, since this tissue is expected to contain high concentrations of parent drug and metabolites following oral administration.
Male mice were administered oral doses of 0 (vehicle=5% dextrose), 50, 90 and 120 mg/kg/day by gavage according to the table below. Animals in groups 1-4 were dosed on three consecutive days and euthanized 3 to 4 hours after the last dose by CO2 inhalation. A separate group of animals were dosed with methyl methanesulfonate (MMS) which served as a positive control. Immediately following euthanasia, the liver was removed and collected from each animal.
In this study, comet tail migration, % tail DNA (also known as % tail intensity) and tail moment were determined for each animal/treatment group and served as parameters of DNA damage.

[4] = both, human, plasma, po, 4 mg, cohort B, 4 mg PO at 0 and +10 hours
[5] = both, human, plasma, po, 20 mg, cohort A, 20 mg PO single dose
[6] = cohort B, 4 mg PO at 0 and +10 hours

Row | SMILES | AUC ([2]; both, human, plasma, po, 4 mg) [ng·h/mL] | AUC(0-inf) ([2]; both, human, plasma, po, 4 mg) [ng·h/mL] | Tmax ([2]; both, human, plasma, po, 4 mg) [h] | half-life ([2]; both, human, plasma, po, 4 mg) [h] | Cmax [2, 4] [ng/mL] | AUC ([2]; both, human, plasma, po, 20 mg) [ng·h/mL] | AUC(0-inf) ([2]; both, human, plasma, po, 20 mg) [ng·h/mL] | Tmax ([2]; both, human, plasma, po, 20 mg) [h] | half-life ([2]; both, human, plasma, po, 20 mg) [h] | Cmax [2, 5] [ng/mL] | AUCall, Max ([2]; cohort A, 20 mg PO single dose) [ng·h/mL] | AUCall, Min ([2]; cohort A, 20 mg PO single dose) [ng·h/mL] | Cmax, Max ([2]; cohort A, 20 mg PO single dose) [ng/mL] | Cmax, Min ([2]; cohort A, 20 mg PO single dose) [ng/mL] | Half-Life, Max ([2]; cohort A, 20 mg PO single dose) [h] | Half-Life, Min ([2]; cohort A, 20 mg PO single dose) [h] | Tmax, Max ([2]; cohort A, 20 mg PO single dose) [h] | Tmax, Min ([2]; cohort A, 20 mg PO single dose) [h] | AUCall, Max [2, 6] [ng·h/mL] | AUCall, Min [2, 6] [ng·h/mL] | further results
1 | CC(C)NCC(O)c1ccc(NS(C)(=O)=O)cc1 (racemic) [dl-Sotalol, reference compound] |  |  |  |  |  |  |  |  |  |  |  |  |  |  |  |  |  |  |  |  | APD60 prolongation [1]: ~40%; APD90 prolongation [1]: ~40%
2 | COC(=O)C12CC3CC(CCO)C1N(C=Cc1c2[nH]c2ccccc12)C3 (stereo not drawn) [M2, methyl7-(2-hydroxyethyl)-7,8,9,10-tetrahydro-5H-6,9-methanopyrido[1′,2′:1,2]azepino[4,5-b]indole-6(6aH)-carboxylate] | 391 | 420 | 11.8 | 44.1 | 11 | 563 | 678 | 1.4 | 14.4 | 41 | 684 | 504 | 62 | 27 | 19.0 | 11.1 | 2.0 | 0.5 | 500 | 287 | Cmax, Max [2, 6]: 12 ng/mL; Cmax, Min [2, 6]: 8 ng/mL; Half-Life, Max [2, 6]: 97.8 h; Half-Life, Min [2, 6]: 18.7 h; Tmax, Max [2, 6]: 12 h; Tmax, Min [2, 6]: 11 h
3 | COCCC1CC2CN3C=Cc4c([nH]c5ccccc45)C(C(=O)OC)(C2)C13 (stereo not drawn) [M4, methyl7-(2-methoxyethyl)-7,8,9,10-tetrahydro-5H-6,9-methanopyrido[1′,2′:1,2]azepino[4,5-b]indole-6(6aH)-carboxylate] | 1650 | 1650 | 7.3 | 22.1 | 72 | 2690 | 2800 | 1.4 | 7.9 | 347 | 3925 | 1897 | 528 | 242 | 9.3 | 6.3 | 2.0 | 0.5 | 1941 | 1304 | pIC50 [3]: 5.59; Ipeak [3]: 23 ± 2% of ACh and 42 ± 3% of ACh; Max Inhibition 20-30 μM [3]: 88 ± 3%; fold less potent than the parent 18-MC HCl [3]: approximately 3.5 fold; kon [3]: 4.5 and 4.5 ± 0.4 s−1; reduction of peak ACh-evoked currents [3]: 68±2% and 86±2%; Ipeak ([3]; 30 μM): 14 ± 2% of ACh; Iss ([3]; 30 μM): 40 ± 6% of peak; τdecay ([3]; 30 μM): 205 ± 40 ms; Persistent Inhibition at 1 sec [3]: 21±3%; koff [3]: 2.5 s⁻¹; percentage of the total drug related material [2]: about 40%; Tmax ([2]; cohort A or B, generally): ½; Cmax, Average [2, 6]: 72.3 ng/mL; Cmax, Max [2, 6]: 82 ng/mL; Cmax, Min [2, 6]: 65 ng/mL; Half-Life, Max [2, 6]: 34.3 h; Half-Life, Min [2, 6]: 13.2 h; Tmax, Max [2, 6]: 12 h; Tmax, Min [2, 6]: 0.5 h
4 | COC(=O)C12CC3CC(CC(=O)O)C1N(CCc1c2[nH]c2ccccc12)C3 (stereo not drawn) [M5, 2-(6-(methoxycarbonyl)-6,6a,7,8,9,10,12,13-octahydro-5H-6,9-methanopyrido[1′,2′:1,2]azepino[4,5-b]indol-7-yl)acetic acid] | 163 | 185 | 2.9 | 46.8 | 6 | 210 | 395 | 0.8 | 29.6 | 25 | 359 | 105 | 38 | 12 | 43.4 | 16.2 | 1.0 | 0.5 | 208 | 104 | pIC50 [3]: 4.24; Ipeak [3]: 70 ± 4% of ACh; Iss [3]: 62 ± 4% of peak; Max Inhibition 20-30 μM [3]: 36 ± 5 %; fold less potent than the parent 18-MC HCl [3]: ~76 fold; kon [3]: 2.2 and 2.2 ± 0.4 s−1; τdecay [3]: 554 ± 32 ms; Persistent Inhibition at 1 sec [3]: 2±2%; koff [3]: 6.2 s⁻¹; Tmax ([2]; cohort A or B, generally): ½; Cmax, Max [2, 6]: 9 ng/mL; Cmax, Min [2, 6]: 3 ng/mL; Half-Life, Max [2, 6]: 74.7 h; Half-Life, Min [2, 6]: 19.8 h; Tmax, Max [2, 6]: 11 h; Tmax, Min [2, 6]: 0.5 h
5 | COCCC1CC2CN3C=Cc4c([nH]c5ccc(O)cc45)C(C(=O)OC)(C2)C13 (stereo not drawn) [M8, methyl 2-hydroxy-7-(2-methoxyethyl)-7,8,9,10-tetrahydro-5H-6,9-methanopyrido[1′,2′:1,2]azepino[4,5-b]indole-6(6aH)-carboxylate] |  |  |  |  |  |  |  |  |  |  |  |  |  |  |  |  |  |  |  |  | percentage of the total drug related material [2]: less than 10%
6 | COS(C)(=O)=O [MMS, methyl methanesulfonate, reference compound] |  |  |  |  |  |  |  |  |  |  |  |  |  |  |  |  |  |  |  |  | comet parameters (mouse liver): produced the expected increases
7 | COC(=O)C12CC3CC(CCO[C@@H]4O[C@H](C(=O)O)[C@@H](O)[C@H](O)[C@H]4O)C1N(C=Cc1c2[nH]c2ccccc12)C3 (stereo partly drawn) [P10, (2S,3S,4S,5R,6R)-3,4,5-trihydroxy-6-(2-(6-(methoxycarbonyl)-6,6a,7,8,9,10-hexahydro-5H-6,9-methanopyrido[1′,2′:1,2]azepino[4,5-b]indol-7-yl)ethoxy)tetrahydro-2H-pyran-2-carboxylic acid] |  |  |  |  |  |  |  |  |  |  |  |  |  |  |  |  |  |  |  |  | percentage of the total drug related material [2]: greater than 10%; Tmax ([2]; both, human, plasma, oral, 4 mg): 6 to 10 h
